Measurements from paper PMC12291850, “Morin Flavonoid Interaction with Albumin and Its Nanoparticle Conjugation: An Efficient Antioxidant Vehicle for Nutraceuticals” (Antioxidants, 2025).
One block for each compound: values may come before it.

What was measured:
[1] = Encapsulation efficiency in BSA nanoparticles (desolvation, HPLC of supernatant); assay type: physicochemical; settings: unchanged when co-loaded with morin
[2] = cited from earlier work
[3] = biological target: T1, bovine serum albumin (BSA) (Bos taurus, UniProt P02769); assay: Fluorescence quenching of BSA by flavonoids (Stern–Volmer, binding equation, van't Hoff); settings: for Stern–Volmer quenching constant (Ksv): excitation 295 nm; for ΔG°: morin: 293–310 K
T1 construct: purchased Merck (Darmstadt, Germany)
Description: Fluorescence quenching spectroscopy was employed to investigate the interaction between bovine serum albumin (BSA) and selected flavonoids, including morin. All measurements were performed using a spectrofluorometer under controlled temperature conditions (25 °C).
To quantify the quenching effect upon encapsulation, the Stern–Volmer equation was applied (Equation (1)):F0/F = 1 + Ksv [Q](1) where F0 and F are the fluorescence intensities of BSA in the absence and presence of quencher (flavonoid), respectively, Ksv is the Stern–Volmer quenching constant, and [Q] is flavonoid concentration.
The binding constant (Ka) and the number of binding sites (n) were calculated using the logarithmic form of the binding equation (Equation (2)):log[(F0 − F)/F] = log Ka + n log[Q](2)
Thermodynamic parameters—Gibbs free energy change (ΔG°) (Equation (3)), enthalpy change (ΔH°), and entropy change (ΔS°)—were determined from the temperature dependence of the binding constant using the van’t Hoff equation (Equation (4)):ΔG° = ΔH° − TΔS°(3) ln Ka = −ΔH°/RT + ΔS°/R(4)

[4] = biological target: T1, bovine serum albumin (BSA); assay: Surface plasmon resonance (SPR) analysis of albumin–morin interaction; assay type: binding
Description: Gold-coated sensor chips were first cleaned and subsequently modified with a self-assembled monolayer (SAM) of 4-mercaptobenzoic acid (4-MBA) to introduce carboxyl functional groups on the sensor surface.
Non-reacted sites were blocked with 1 M ethanolamine (pH 8.5).
Sensorgrams were recorded in real time, and binding responses were referenced against control channels and buffer-only injections.
Equilibrium binding data were analyzed using Langmuir isotherm models to estimate the apparent association constant (Ka), dissociation constant (Kd), and maximum binding response (Rmax). Data fitting and kinetic analysis were performed using the instrument’s integrated software suite.

[5] = biological target: T1, bovine serum albumin (BSA); assay: Circular dichroism of BSA with morin under oxidative conditions; settings: morin 10 and 20 µM, UV irradiation and hydrogen peroxide
Description: Measurements were performed using a J-1500 CD spectropolarimeter (JASCO, Tokyo, Japan) equipped with a temperature-controlled cell holder maintained at 25 °C. Spectra were acquired using a 0.1 cm path length quartz cuvette. Each spectrum represents the average of three consecutive scans, recorded at a scanning speed of […] with a response time of 1 s. […] For oxidative conditions, hydrogen peroxide was added to a final concentration of 0.5% (w/v) to promote hydroxyl radical generation. All solutions were prepared in 10 mM phosphate buffer at pH 7.4 and allowed to equilibrate for 15 min before measurement. Spectra were corrected by subtracting the baseline of the corresponding buffer or hydrogen peroxide control solution.

[6] = set-up: method as in doi:10.1039/C6RA20441D; settings: cited from earlier work
[7] = Encapsulation efficiency in BSA nanoparticles (desolvation, HPLC of supernatant); assay type: physicochemical
Description: (§1) A high-performance liquid chromatography (HPLC) method was developed and validated to quantify morin for the subsequent evaluation of encapsulation efficiency, drug loading capacity, physicochemical stability, photodegradation under ultraviolet (UV) exposure, and hydroxyl radical scavenging activity. Chromatographic analyses were conducted using a Shimadzu LC-20AT HPLC system (Shimadzu, Kyoto, Japan), equipped with a SIL-20A autosampler and an SPD-M20A photodiode array (PDA) detector. Separation was achieved on a C18 ODS Hypersil column (250 mm × 4.6 mm, 5 μm particle size; Agilent Technologies, Santa Clara, CA, USA). The mobile phase consisted of acetonitrile and 0.1% trifluoroacetic acid in water (30:70, v/v), delivered under isocratic conditions at a flow rate of 1.0 mL/min. The injection volume was set at 20 μL. Morin detection was performed at a wavelength of 360 nm using the PDA detector. The method was optimized to ensure adequate peak resolution, retention time reproducibility, and sensitivity for low-concentration samples. This analytical approach was employed throughout the study to monitor morin concentration in various experimental settings, including nanoparticle formulations and stability assays.
The impact of other antioxidant molecules (ellagic acid and tocopherol succinate) on the behavior of morin encapsulated in BSA nanoparticles in an intestinal environment was assessed through in vitro loading and release experiments. […] Then, ethanol was added dropwise under constant stirring, followed by the addition of 20 µL of an 8% glutaraldehyde solution [25]. The final volume of the mixture was adjusted to 10 mL. After 24 h, the nanoparticles were collected by centrifugation (13,500 rpm, 20 min, and 25 °C) and washed with water. The supernatant was separated for further analysis. To incorporate ellagic acid or tocopherol succinate, each compound—either individually or in combination—was included in the ethanol phase during the dropwise addition. The rest of the procedure remained unchanged. The encapsulation efficiency (%EE) was calculated using Equation (5):(5) %EE=Mi−Mf/Mi×100 where Mi and Mf correspond to the initial amount of morin added during the loading process and the free morin in the supernatant, respectively.

[8] = Photolysis and photooxidation (hydroxyl radical from H2O2 under UV 254 nm) of morin, HPLC-DAD; assay type: physicochemical
Description: Morin was incorporated into the system by adding small aliquots of a stock solution in ethanol, ensuring the final ethanol concentration remained below 2% (v/v) to avoid solvent-induced effects on photoreactivity. Oxidative conditions were simulated by the addition of hydrogen peroxide to a final concentration of 0.5% (w/v), serving as a source of hydroxyl radicals upon UV activation. Each reaction mixture was vortexed to ensure homogeneity and subsequently transferred into 5 mL double-jacketed quartz cuvettes. The outer surface of each cuvette was coated with opaque black paint to prevent ambient light interference, except for a centrally located circular window (1 cm diameter) designed to permit focused irradiation. A circulating water bath maintained the cuvette temperature at 20 ± 0.5 °C. Photolysis was carried out using a high-power mercury UV lamp emitting at 254 nm. […] Quantitative analysis of morin degradation and spectral changes associated with hydroxyl radical attack was performed using high-performance liquid chromatography with diode array detection (HPLC-DAD) and UV–visible spectrophotometry.
as §1

[9] = tested on: human serum albumin (HSA); settings: fluorescence studies; cited from earlier work
[10] = BSA nanoparticles prepared via desolvation
[11] = BSA fluorescence quenching, 25 °C
[12] = flavonoid–BSA complex, van't Hoff analysis
[13] = read-out: binding constant (Ka) (converted)

T1 sequence (P02769 25-607): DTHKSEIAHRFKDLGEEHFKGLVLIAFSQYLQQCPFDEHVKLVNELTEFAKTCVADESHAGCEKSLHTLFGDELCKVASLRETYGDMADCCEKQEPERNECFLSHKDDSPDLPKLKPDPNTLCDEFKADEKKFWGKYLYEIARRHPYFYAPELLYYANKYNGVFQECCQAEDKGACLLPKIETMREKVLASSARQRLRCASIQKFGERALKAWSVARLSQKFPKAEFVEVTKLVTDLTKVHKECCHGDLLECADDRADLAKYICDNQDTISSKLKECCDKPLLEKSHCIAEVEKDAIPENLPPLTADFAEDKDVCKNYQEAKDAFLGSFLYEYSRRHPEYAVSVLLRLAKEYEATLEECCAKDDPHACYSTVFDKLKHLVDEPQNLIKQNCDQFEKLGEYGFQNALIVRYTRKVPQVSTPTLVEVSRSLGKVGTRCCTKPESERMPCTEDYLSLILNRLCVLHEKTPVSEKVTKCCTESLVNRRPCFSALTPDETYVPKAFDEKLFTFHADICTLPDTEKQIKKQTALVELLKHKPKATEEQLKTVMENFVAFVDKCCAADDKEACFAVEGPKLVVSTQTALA

- encapsulation efficiency of coumestrol [1]: 22.4% ± 0.1%
Compound: O=c1oc2cc(O)ccc2c2oc3cc(O)ccc3c12 [coumestrol]
- encapsulation efficiency in BSA nanoparticles ([2]; previous studies): 22.4% ± 0.1%

Compound: O=c1c(O)c(-c2ccc(O)c(O)c2)oc2cc(O)ccc12 [fisetin]
- average particle size [2, 10]: 200 ± 8 nm
- encapsulation efficiency [2, 10]: 84%

- Kd [3]: 11.4 µM
- number of binding sites (n) ([3]; BSA fluorescence quenching): 1.22 ± 0.04
- bimolecular quenching rate constant (kq) [3, 11]: 8.11 × 10^12 ± 0.04 L mol^−1 s^−1
- Stern–Volmer quenching constant (Ksv) [3, 11]: 8.11 × 10^4 ± 0.02 L mol^−1
Compound: O=c1c(-c2ccc(O)cc2)coc2cc(O)cc(O)c12 [genistein]

- number of binding sites (n) ([3]; BSA fluorescence quenching): 0.94 ± 0.01
- bimolecular quenching rate constant (kq) [3, 11]: 3.66 × 10^12 ± 0.04 L mol^−1 s^−1
- Stern–Volmer quenching constant (Ksv) [3, 11]: 3.66 × 10^4 ± 0.05 L mol^−1
- ΔG° [3, 12]: –26.9 kJ·mol^−1
- Kd [3, 13]: 29.5 µM
Compound: O=c1c(-c2ccc(O)cc2)coc2cc(O[C@@H]3O[C@H](CO)[C@@H](O)[C@H](O)[C@H]3O)cc(O)c12 [genistin]

- number of binding sites (n) ([3]; BSA fluorescence quenching): 1.33 ± 0.03
- bimolecular quenching rate constant (kq) [3, 11]: 2.23 × 10^13 ± 0.02 L mol^−1 s^−1
- Stern–Volmer quenching constant (Ksv) [3, 11]: 2.23 × 10^5 ± 0.03 L mol^−1
- Kd [3, 13]: 5.99 µM
Compound: O=c1c(O)c(-c2ccc(O)cc2)oc2cc(O)cc(O)c12 [kaempferol]

Compound: O=c1c(O)c(-c2ccc(O)cc2O)oc2cc(O)cc(O)c12 [morin, 3,5,7,2′,4′-pentahydroxyflavone]
- Kd [4]: 285 µM
- effect on BSA secondary structure (CD ellipticity at 208 and 222 nm) [5]: no significant loss of α-helical structure
- extended release ([6]; 72 h, pH 7.4): up to 80%
- initial 6 h release ([6]; stated for both this study (SIF) and the literature study (pH 7.4)): < 40%
- %EE of morin ([7]; BSA nanoparticles co-loaded with both ellagic acid and tocopherol succinate): 80%
- %EE of morin ([7]; BSA nanoparticles co-loaded with ellagic acid): 76%
- %EE of morin ([7]; BSA nanoparticles co-loaded with tocopherol succinate): 72.6%
- %EE of morin ([7]; encapsulated alone in BSA nanoparticles (comparison with coumestrol co-loading)): 20.5% ± 3.0%
- %EE ([7]; initial [Morin] 0.128 mM): 25.97 ± 4.29%
- Morin/BSA molar ratio ([7]; initial [Morin] 0.128 mM): 0.30 ± 0.05
- %EE ([7]; initial [Morin] 0.222 mM): 20.42 ± 0.67%
- Morin/BSA molar ratio ([7]; initial [Morin] 0.222 mM): 0.48 ± 0.02
- %EE ([7]; initial [Morin] 0.308 mM): 19.31 ± 0.42%
- Morin/BSA molar ratio ([7]; initial [Morin] 0.308 mM): 0.68 ± 0.01
- %EE ([7]; initial [Morin] 0.507 mM): 20.99 ± 0.27%
- Morin/BSA molar ratio ([7]; initial [Morin] 0.507 mM): 0.98 ± 0.01
- Morin/BSA molar ratio ([7]; initial [Morin] 0.634 mM): 1.01 ± 0.04
- %EE ([7]; initial [Morin] 1.478 mM): 18.94 ± 0.85%
- Morin/BSA molar ratio ([7]; initial [Morin] 1.478 mM): 1.48 ± 0.07
- encapsulation efficiencies (maximum) ([7]; morin in BSA nanoparticles prepared by desolvation): up to 26%
- Kd [3]: 5.35 µM
- number of binding sites (n) ([3]; BSA fluorescence quenching): 1.10 ± 0.02
- bimolecular quenching rate constant (kq) [3, 11]: 1.76 × 10^13 ± 0.02 L mol^−1 s^−1
- binding constant (Ka) [3, 11]: 187000 L/mol
- Stern–Volmer quenching constant (Ksv) [3, 11]: 1.76 × 10^5 ± 0.03 L mol^−1
- ΔH° [3, 12]: –28.7 kJ·mol^−1
- ΔS° [3, 12]: 4.75 J·mol^−1·K^−1
- ΔG° [3, 12]: approximately –30.1 kJ·mol^−1
- initial morin concentration retained ([8]; UV exposure with hydrogen peroxide, 10 min, 2 µM BSA, pH 7.4): 79%
- morin concentration remaining ([8]; UV exposure with hydrogen peroxide, 10 min, absence of BSA, pH 7.4): 61.5%
- initial morin concentration remaining ([8]; UV photolysis, 10 min, absence of BSA, phosphate buffer pH 7.4): 94.9%
- improvement in morin retention compared to the system without BSA ([8]; photooxidation 10 min, 2 µM BSA): 17.5%

- number of binding sites (n) ([3]; BSA fluorescence quenching): 1.13 ± 0.02
- bimolecular quenching rate constant (kq) [3, 11]: 1.88 × 10^13 ±0.03 L mol^−1 s^−1
- Stern–Volmer quenching constant (Ksv) [3, 11]: 1.88 × 10^5 ± 0.02 L mol^−1
Compound: O=c1c(O)c(-c2ccc(O)c(O)c2)oc2cc(O)cc(O)c12 [quercetin]

Compound: O=C(/C=C/c1ccc(O)c(O)c1)O[C@H](Cc1ccc(O)c(O)c1)C(=O)O [rosmarinic acid]
- association constant (K) [9]: ~10^7 M^−1
